Experimental data reported in patent publication US20250197407A1 (Jazz Pharmaceuticals Ireland Limited, priority 2022, published 2025).

Target: SOS1/KRAS WT (Homo sapiens (Human), UniProt Q07889)
Test: SOS1/KRAS WT HTRF binding assay (FRET-based protein-protein interaction)
Settings: inhibition of His6-SOS1 (aa564-1049, 40 nM) binding to GST-KRAS-WT (aa1-188, 40 nM); at least two independent replicates; read-out: SOS1/KRAS WT HTRF Binding assay pIC50 (converted)
Description: The capacity of compounds to inhibit SOS1 binding to KRAS-WT (wild-type) was quantified using a FRET-based protein-protein interaction assay. The assay is based on the transfer of energy between two fluorophores, a donor and an acceptor, when in close proximity. In this instance, the donor is a Europium-conjugated α-GST antibody that binds to GST-tagged KRAS-WT, and the acceptor is an XL665-conjugated α-His 6 antibody that binds to His 6-tagged SOS1. Binding of SOS1 to KRAS-WT results in an increased fluorescent signal at emission wavelength of 665 nm which can be detected on the EnVision plate reader. Compounds that inhibit binding will reduce the 665 nm signal emitted. Recombinant KRAS-WT protein (40 nM; Human KRAS, aa1-188 recombinant protein with N-terminal GST-tag) and SOS1 protein (40 nM; Human SOS1 exchange domain, aa564-1049 with N-terminal 6His-tag) were mixed together in assay buffer (5 mM HEPES pH7.3, 150 mM NaCl, 10 mM EDTA, 5 mM MgCl2, 0.05% BSA, 0.0025% NP-40, 1 mM DTT and 100 mM KF) and incubated at room temperature with a dose response of compound in a 384-well low volume white plate and a final volume of 5 ul. After a 60 minute incubation, 5 ul of 4 nM anti-GST-Eu(K) (Cisbio, France) combined with 20 nM anti-6His-XL665 (Cisbio, France), diluted in assay buffer, was added to the plate. Following a further 4 hr incubation at room temperature, time-resolved fluorescence was measured on the EnVision plate reader. DMSO (0.05%) and 10 μM reference compound were used to generate the Max and Min assay signals, respectively. Data was analysed using a four-parameter logistic model to calculate IC50 values, with at least two independent replicates performed for each compound.
Data was analyzed using a four-parameter logistic model to calculate IC50 values, with at least two independent replicates performed for each compound.

Chain of SOS1/KRAS WT (Q07889 564-1049): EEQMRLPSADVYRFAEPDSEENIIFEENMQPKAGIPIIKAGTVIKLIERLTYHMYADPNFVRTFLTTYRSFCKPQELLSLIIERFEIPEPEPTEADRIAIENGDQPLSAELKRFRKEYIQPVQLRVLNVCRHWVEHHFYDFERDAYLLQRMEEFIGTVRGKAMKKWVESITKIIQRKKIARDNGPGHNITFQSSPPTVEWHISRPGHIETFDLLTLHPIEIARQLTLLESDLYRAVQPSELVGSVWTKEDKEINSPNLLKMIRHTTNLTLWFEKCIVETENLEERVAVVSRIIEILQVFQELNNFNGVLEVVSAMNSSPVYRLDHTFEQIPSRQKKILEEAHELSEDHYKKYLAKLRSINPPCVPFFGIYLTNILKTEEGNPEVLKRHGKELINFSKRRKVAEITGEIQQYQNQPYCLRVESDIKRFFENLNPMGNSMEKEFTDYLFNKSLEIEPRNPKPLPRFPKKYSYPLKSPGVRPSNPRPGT

SMILES | IC50
Cc1nnc(NC(C)c2cccc(C(F)(F)F)c2)c2cc3c(cc12)n(C)c(=O)n3C1CCCC1 (stereo not drawn) [Compound 1, 3-cyclopentyl-1,8-dimethyl-5-[1-[3-(trifluoromethyl)phenyl]-ethylamino]^− imidazo[4,5-g]phthalazin-2-one] | 37.2 nM
Cc1nnc(N[C@H](C)c2cccc(C(F)(F)F)c2)c2cc3c(cc12)n(C)c(=O)n3C1CCCC1 [Compound 2, 3-cyclopentyl-1,8-dimethyl-5-[[(1R)-1-[3-(trifluoromethyl)phenyl]ethyl]amino] imidazo[4,5-g]phthalazin-2-one] | 13.2 nM
Cc1nnc(N[C@H](C)c2cccc(C(F)(F)F)c2)c2cc3c(cc12)n(C)c(=O)n3C [Compound 3, 1,3,8-trimethyl-5-[[(1R)-1-[3-(trifluoromethyl)phenyl]ethyl]amino] imidazo[4,5-g]phthalazin-2-one] | 20.9 nM
Cc1nnc(N[C@H](C)c2cc(N)cc(C(F)(F)F)c2)c2cc3c(cc12)n(C)c(=O)n3C [Compound 4, 5-[[(1R)-1-[3-amino-5-(trifluoromethyl)phenyl]ethyl]amino]-1,3,8-trimethyl-imidazo[4,5-g]phthalazin-2-one] | 17 nM
Cc1nnc(N[C@H](C)c2cccc(C(F)F)c2)c2cc3c(cc12)n(C)c(=O)n3C [Compound 5, 5-[[(1R)-1-[3-(difluoromethyl)phenyl]ethyl]amino]-1,3,8-trimethyl-imidazo[4,5-g]phthalazin-2-one] | 39.8 nM
Cc1nnc(N[C@H](C)c2cccc(C(F)(F)CO)c2)c2cc3c(cc12)n(C)c(=O)n3C [Compound 6, 5-[[(1R)-1-[3-(1,1-difluoro-2-hydroxy-ethyl)phenyl]ethyl]amino]-1,3,8-trimethyl-imidazo[4,5-g]phthalazin-2-one] | 18.6 nM
Cc1nnc(N[C@H](C)c2cccc(C(F)(F)CO)c2F)c2cc3c(cc12)n(C)c(=O)n3C [Compound 7, 5-[[(1R)-1-[3-(1,1-difluoro-2-hydroxy-ethyl)-2-fluoro-phenyl]ethyl]amino]-1,3,8-trimethyl-imidazo[4,5-g]phthalazin-2-one] | 17.4 nM
COCCn1c(=O)n(C)c2cc3c(C)nnc(N[C@H](C)c4cccc(C(F)(F)F)c4)c3cc21 [Compound 8, 3-(2-methoxyethyl)-1,8-dimethyl-5-[[(1R)-1-[3-(trifluoromethyl)phenyl]ethyl]amino]imidazo[4,5-g]phthalazin-2-one] | 12.6 nM
CCn1c(=O)n(C)c2cc3c(C)nnc(N[C@H](C)c4cccc(C(F)(F)F)c4)c3cc21 [Compound 9, 3-ethyl-1,8-dimethyl-5-[[(1R)-1-[3-(trifluoromethyl)phenyl]ethyl]amino] imidazo[4,5-g]phthalazin-2-one] | 12 nM
Cc1c([C@@H](C)Nc2nnc(C)c3cc4c(cc23)n(C)c(=O)n4C)cccc1C(F)(F)CO [Compound 10, 5-[[(1R)-1-[3-(1,1-difluoro-2-hydroxy-ethyl)-2-methyl-phenyl]ethyl]amino]-1,3,8-trimethyl-imidazo[4,5-g]phthalazin-2-one] | 9.12 nM
Cc1nnc(N[C@H](C)c2cccc(C(F)(F)F)c2)c2cc3c(cc12)n(C)c(=O)n3CC(F)(F)F [Compound 11, 1,8-dimethyl-5-[[(1R)-1-[3-(trifluoromethyl)phenyl]ethyl]amino]-3-(2,2,2-trifluoroethyl)imidazo[4,5-g]phthalazin-2-one] | 12 nM
Cc1nnc(N[C@H](C)c2cccc(C(F)(F)F)c2)c2cc3c(cc12)n(C)c(=O)n3C(C)C [Compound 12, 3-isopropyl-1,8-dimethyl-5-[[(1R)-1-[3-(trifluoromethyl)phenyl]ethyl]amino]imidazo[4,5-g]phthalazin-2-one] | 8.13 nM
Cc1nnc(N[C@H](C)c2cccc(C(F)(F)F)c2)c2cc3c(cc12)n(C)c(=O)n3C1CC1 [Compound 13, 3-cyclopropyl-1,8-dimethyl-5-[[(1R)-1-[3-(trifluoromethyl)phenyl]ethyl]amino]imidazo[4,5-g]phthalazin-2-one] | 11.5 nM
Cc1nnc(N[C@H](C)c2cccc(C(F)(F)CO)c2)c2cc3c(cc12)n(C)c(=O)n3C(C)C [Compound 14, 3-isopropyl-1,8-dimethyl-5-[[(1R)-1-[3-(1,1-difluoro-2-hydroxy-ethyl)phenyl]ethyl]amino]imidazo [4,5-g]phthalazin-2-one] | 7.59 nM
Cc1nnc(N[C@H](C)c2cccc(C(F)(F)CO)c2F)c2cc3c(cc12)n(C)c(=O)n3C(C)C [Compound 15, 3-isopropyl-1,8-dimethyl-5-[[(1R)-1-[3-(1,1-difluoro-2-hydroxy-ethyl)-2-fluoro-phenyl]ethyl]amino]imidazo[4,5-g]phthalazin-2-one] | 8.32 nM
Cc1nnc(N[C@H](C)c2cccc(C(F)(F)C(C)(C)O)c2F)c2cc3c(cc12)n(C)c(=O)n3C [Compound 16, 1,3,8-trimethyl-5-[[(1R)-1-[3-(1,1-difluoro-2-hydroxy-2-methyl-propyl)-2-fluoro-phenyl]ethyl]amino]imidazo[4,5-g]phthalazin-2-one] | 11.2 nM
COCCn1c(=O)n(C)c2cc3c(N[C@H](C)c4cccc(C(F)(F)F)c4)nnc(C)c3cc21 [Compound 17, 1-(2-methoxyethyl)-3,8-dimethyl-5-[[(1R)-1-[3-(trifluoromethyl)phenyl]ethyl]amino] imidazo[4,5-g]phthalazin-2-one] | 22.9 nM
Cc1nnc(N[C@H](C)c2cccc(C(F)(F)F)c2)c2cc3c(cc12)n(C)c(=O)n3CC1CC1 [Compound 18, 3-(cyclopropylmethyl)-1,8-dimethyl-5-[[(1R)-1-[3-(trifluoromethyl)phenyl]ethyl]amino] imidazo[4,5-g]phthalazin-2-one] | 23.4 nM
CCn1c(=O)n(C)c2cc3c(C)nnc(N[C@H](C)c4cccc(C(F)(F)CO)c4F)c3cc21 [Compound 19, 3-ethyl-1,8-dimethyl-5-[[(1R)-1-[3-(1,1-difluoro-2-hydroxy-ethyl)-2-fluoro-phenyl]ethyl]amino]imidazo[4,5-g]phthalazin-2-one] | 9.12 nM
CCn1c(=O)n(C)c2cc3c(C)nnc(N[C@H](C)c4cccc(C(F)F)c4F)c3cc21 [Compound 20, 3-ethyl-1,8-dimethyl-5-[[(1R)-1-[3-(difluoromethyl)-2-fluoro-phenyl]ethyl]amino]imidazo[4,5-g]phthalazin-2-one] | 10 nM
Cc1nnc(N[C@H](C)c2cccc(C(F)(F)CO)c2F)c2cc3c(cc12)n(C)c(=O)n3C1CCC1 [Compound 21, 3-cyclobutyl-1,8-dimethyl-5-[[(1R)-1-[3-(1,1-difluoro-2-hydroxy-ethyl)-2-fluoro-phenyl]ethyl]amino]imidazo[4,5-g]phthalazin-2-one] | 9.77 nM
Cc1nnc(N[C@H](C)c2cccc(C(F)(F)F)c2)c2cc3c(cc12)n(C)c(=O)n3C1CCC1 [Compound 22, 3-cyclobutyl-1,8-dimethyl-5-[[(1R)-1-[3-(trifluoromethyl)phenyl]ethyl]amino] imidazo[4,5-g]phthalazin-2-one] | 11.5 nM
Cc1nnc(N[C@H](C)c2cccc(C(F)(F)F)c2)c2cc3c(cc12)OCC(=O)N3C [Compound 23, 4,9-dimethyl-6-[[(1R)-1-[3-(trifluoromethyl)phenyl]ethyl]amino]pyridazino[4,5-g][1,4]benzoxazin-3-one] | 44.7 nM
Cc1nnc(N[C@H](C)c2cccc(C(F)(F)F)c2)c2cc3c(cc12)OC1(CC1)C(=O)N3C(C)C [Compound 25, 4′-isopropyl-9′-methyl-6′-[[(1R)-1-[3-(trifluoromethyl)phenyl]ethyl]amino]spiro[cyclopropane-1,2′-pyridazino[4,5-g][1,4]benzoxazine]-3′-one] | 63.1 nM
Cc1nnc(N[C@H](C)c2cccc(C(F)(F)CO)c2F)c2cc3c(cc12)n(C)c(=O)n3C(C)(C)C [Compound 26, 3-tert-butyl-1,8-dimethyl-5-[[(1R)-1-[3-(1,1-difluoro-2-hydroxy-ethyl)-2-fluoro-phenyl]ethyl]amino]imidazo[4,5-g]phthalazin-2-one] | 14.5 nM
Cc1nnc(N[C@H](C)c2cccc(C(F)F)c2F)c2cc3c(cc12)n(C)c(=O)n3C(C)(C)C [Compound 27, 3-tert-butyl-1,8-dimethyl-5-[[(1R)-1-[3-(difluoromethyl)-2-fluoro-phenyl]ethyl]amino]imidazo[4,5-g]phthalazin-2-one] | 9.33 nM
COCCn1c(=O)n(C)c2cc3c(C)nnc(N[C@H](C)c4cccc(C(F)F)c4F)c3cc21 [Compound 28, 3-(2-methoxyethyl)-1,8-dimethyl-5-[[(1R)-1-[3-(difluoromethyl)-2-fluoro-phenyl]ethyl]amino]imidazo[4,5-g]phthalazin-2-one] | 12.3 nM
